Measured values taken from ChEMBL document CHEMBL1201862, “PubChem BioAssay data set” (2004).
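Grown in 96-well plates, cells were treated for 48 hours with each compound at five concentrations. Insufficient inhibition: endpoint recorded as highest concentration tested. The concentration for 50% growth inhibition is given as GI50.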 Activity calls are given as the source filed them. Rule as the data show it: active = GI50 up to about 1.1 µM and inactive = higher.

What was measured:
Test in all cases: growth of human tumour cells (NCI), 48 h
CAKI-1 = tested on: CAKI-1
SF-539 = tested on: SF-539
LOX IMVI = tested on: LOX IMVI
HOP-62 = tested on: HOP-62
TK-10 = tested on: TK-10
SF-268 = tested on: SF-268
DU-145 = tested on: DU-145
BT-549 = tested on: BT-549
786-0 = tested on: 786-0
Hs-578T = tested on: Hs-578T
SNB-75 = tested on: SNB-75
MOLT-4 = tested on: MOLT-4
SF-295 = tested on: SF-295
SK-OV-3 = tested on: SK-OV-3
HT-29 = tested on: HT-29
COLO 205 = tested on: COLO 205
IGROV-1 = tested on: IGROV-1
PC-3 = tested on: PC-3
NCI-H460 = tested on: NCI-H460
SR = tested on: SR

Measured: GI50

COc1ccc(-[n+]2nc(S(=O)(=O)O)c(/C=C/c3ccc(N(C)C)cc3)cc2C#N)cc1
inactive: CAKI-1 > 100 µM | SF-539 > 100 µM | LOX IMVI > 100 µM | HOP-62 > 100 µM | TK-10 > 100 µM | SF-268 > 100 µM | DU-145 > 100 µM | BT-549 > 100 µM | 786-0 > 100 µM | Hs-578T > 100 µM | SNB-75 > 100 µM | MOLT-4 > 100 µM | SF-295 > 100 µM | SK-OV-3 > 100 µM | HT-29 > 100 µM | COLO 205 > 100 µM | IGROV-1 > 100 µM | PC-3 > 100 µM

Cc1cc(C#N)c(Nc2c(C)cccc2[N+](=O)[O-])s1
inactive: CAKI-1 36.9 µM | SF-539 43.2 µM | HOP-62 25.4 µM | SF-268 28 µM | DU-145 36.2 µM | NCI-H460 76.4 µM | BT-549 24.3 µM | 786-0 26.9 µM | SNB-75 21.5 µM | MOLT-4 92 µM | SF-295 28.8 µM | SK-OV-3 35.4 µM | SR 49.7 µM | COLO 205 > 100 µM | PC-3 17.3 µM

C/C=C1\C(=O)OC2CCN3CCC(COC(=O)C(C)(O)C(C)C1O)C23 (stereo not given)
inactive: CAKI-1 > 100 µM | SF-539 > 100 µM | LOX IMVI > 100 µM | TK-10 > 100 µM | SF-268 > 100 µM | DU-145 > 100 µM | NCI-H460 > 100 µM | BT-549 > 100 µM | 786-0 > 100 µM | Hs-578T > 100 µM | SNB-75 > 100 µM | MOLT-4 > 100 µM | SF-295 > 100 µM | SK-OV-3 > 100 µM | HT-29 > 100 µM | COLO 205 > 100 µM | IGROV-1 > 100 µM | PC-3 > 100 µM

CCOC(=O)c1ccc2c(c1)Cc1cc([N+](=O)[O-])ccc1-2
inactive: CAKI-1 36.6 µM | SF-539 36.1 µM | LOX IMVI 41.2 µM | HOP-62 > 100 µM | TK-10 24.4 µM | SF-268 24 µM | DU-145 > 100 µM | NCI-H460 50.9 µM | BT-549 30.1 µM | 786-0 86.5 µM | Hs-578T 48.9 µM | MOLT-4 20.1 µM | SF-295 23.1 µM | SK-OV-3 29.6 µM | HT-29 27.1 µM | COLO 205 23.2 µM | IGROV-1 10.6 µM | PC-3 61.9 µM

C/C(=N\NC(=S)N1CCN(C)CC1)c1nc2cccnc2[nH]1
inactive: CAKI-1 > 100 µM | SF-539 > 100 µM | LOX IMVI > 100 µM | HOP-62 > 100 µM | TK-10 54.7 µM | SF-268 > 100 µM | NCI-H460 > 100 µM | BT-549 22.4 µM | 786-0 > 100 µM | Hs-578T > 100 µM | SNB-75 > 100 µM | MOLT-4 > 100 µM | SF-295 > 100 µM | SK-OV-3 > 100 µM | HT-29 > 100 µM | COLO 205 > 100 µM | IGROV-1 > 100 µM | PC-3 > 100 µM

O=C1c2ccccc2-c2c1c(-c1cccc(Br)c1)nc1ccc3ccccc3c21
inactive: CAKI-1 > 100 µM | SF-539 > 100 µM | LOX IMVI > 100 µM | HOP-62 > 100 µM | SF-268 > 100 µM | DU-145 > 100 µM | NCI-H460 > 100 µM | BT-549 > 100 µM | 786-0 > 100 µM | Hs-578T 46.9 µM | SNB-75 > 100 µM | MOLT-4 > 100 µM | SF-295 > 100 µM | SK-OV-3 > 100 µM | HT-29 > 100 µM | COLO 205 > 100 µM | PC-3 > 100 µM

Cc1csc(-n2c(C)nc3cc(Cl)ccc3c2=O)n1
inactive: CAKI-1 > 100 µM | SF-539 > 100 µM | LOX IMVI 96.2 µM | HOP-62 > 100 µM | TK-10 > 100 µM | SF-268 42.8 µM | DU-145 > 100 µM | NCI-H460 > 100 µM | BT-549 > 100 µM | 786-0 > 100 µM | SNB-75 > 100 µM | MOLT-4 46.7 µM | SF-295 > 100 µM | SK-OV-3 > 100 µM | HT-29 > 100 µM | SR > 100 µM | COLO 205 71 µM | IGROV-1 33.2 µM | PC-3 > 100 µM

c1ccc(CCNc2ccccn2)nc1
inactive: CAKI-1 > 100 µM | LOX IMVI > 100 µM | HOP-62 > 100 µM | TK-10 > 100 µM | SF-268 > 100 µM | DU-145 > 100 µM | NCI-H460 > 100 µM | BT-549 > 100 µM | 786-0 > 100 µM | Hs-578T > 100 µM | SF-295 > 100 µM | SK-OV-3 > 100 µM | HT-29 > 100 µM | COLO 205 > 100 µM | IGROV-1 > 100 µM | PC-3 > 100 µM

C=CCNC(=S)N/C=C(/C(C)=O)C(=O)Nc1ccccc1C
inactive: CAKI-1 > 100 µM | SF-539 > 100 µM | LOX IMVI > 100 µM | HOP-62 > 100 µM | TK-10 > 100 µM | SF-268 > 100 µM | DU-145 > 100 µM | NCI-H460 > 100 µM | BT-549 > 100 µM | 786-0 > 100 µM | Hs-578T > 100 µM | MOLT-4 > 100 µM | SF-295 > 100 µM | SK-OV-3 > 100 µM | HT-29 > 100 µM | COLO 205 > 100 µM | IGROV-1 > 100 µM | PC-3 > 100 µM

Cc1cc(S(=O)(=O)NC2=NNC(C)CN2)c(S)cc1Cl (stereo not given)
inactive: CAKI-1 56.8 µM | SF-539 43.9 µM | LOX IMVI 18.4 µM | HOP-62 48.8 µM | TK-10 > 100 µM | SF-268 15.9 µM | DU-145 75.7 µM | NCI-H460 54.2 µM | BT-549 49.3 µM | 786-0 35 µM | SNB-75 93.5 µM | MOLT-4 44.2 µM | SF-295 46.3 µM | SK-OV-3 > 100 µM | HT-29 62.2 µM | SR 37.2 µM | COLO 205 > 100 µM | IGROV-1 23.9 µM | PC-3 63.7 µM

Cc1cn(CCCCCCC2=NCCCN2)c(=O)[nH]c1=O
inactive: CAKI-1 > 100 µM | SF-539 > 100 µM | LOX IMVI > 100 µM | HOP-62 > 100 µM | TK-10 > 100 µM | SF-268 > 100 µM | DU-145 > 100 µM | NCI-H460 > 100 µM | BT-549 > 100 µM | 786-0 > 100 µM | Hs-578T > 100 µM | SNB-75 > 100 µM | MOLT-4 > 100 µM | SF-295 > 100 µM | SK-OV-3 > 100 µM | HT-29 > 100 µM | COLO 205 > 100 µM | IGROV-1 > 100 µM | PC-3 > 100 µM
